Common to all, as to type: in vivo
Assay [1] concerns Downy Brome (Bromus tectorum). The assay can be described thus: Herbicide efficacy (percent control) on downy brome with differing spray adjuvants (Table 2). Set-up: concentration or dose not given beside the values. The note with it: for Downy Brome % Control 21 DAT: 21 days after treatment; for Downy Brome % Control 68 DAT: 68 days after treatment. An excerpt: (§1) This effect has been seen with both wild oat (Avena fatua) Table 1 and downy brome (Bromus tectorum) Table 2. The increase in activity has been seen with different formulation of tallow amine cat-ionic surfactant and a pH increasing additive (Table 3). [table]

The test system of the next assay is Wild Oat (Avena fatua). The assay is described as follows: Post-emergence herbicide efficacy (percent control) on wild oats with differing spray adjuvants. The note with it: Sulfosulfuron 0.66 oz/Acre; for Wild Oat % Control 14 DAT: 14 days after treatment; for Wild Oat % Control 28 DAT: 28 days after treatment. The text has this: This invention pertains to the unexpected increase in activity seen when sulfosulfuron was applied with a cat-ionic surfactant plus a pH adjustor that increased the pH to a pH of 9-10.5 (Table 1). As opposed to the increase in activity that was predicted to happen when applied with an oil based or non-ionic surfactant with a pH adjustor as taught by Nalewaja et. al. This effect has been seen with both wild oat (Avena fatua) Table 1 and downy brome (Bromus tectorum) Table 2. The increase in activity has been seen with different formulation of tallow amine cat-ionic surfactant and a pH increasing additive (Table 3). [table]

Assay [2] relates to Downy Brome (Bromus tectorum). The assay is described as follows: Sulfosulfuron efficacy (percent control) on downy brome with differing tallow amine adjuvant formulations (Table 3). The note with it: for Downy Brome % Control 17 DAT: 17 days after treatment; for Downy Brome % Control 87 DAT: 87 days after treatment. Set-up: concentration or dose not given beside the values.
Excerpt: as §1

The mark [3] stands for this setting: adjuvant AQ117 (tallow amine plus aqua ammonia).
[4] abbreviates: adjuvant R-11 (non-ionic surfactant).
Setting [5] is: adjuvant AQ118 (tallow amine plus aqua ammonia).
Where [6] appears, read: adjuvant Quad 7 (crop oil plus nitrogen fertilizer).
[7] abbreviates: adjuvant AQ103 (tallow amine plus aqua ammonia).
Setting [8] is: adjuvant AQ104 (tallow amine plus aqua ammonia).

On to `CCCOc1nn(C(=O)[N-]S(=O)(=O)c2ccccc2C(=O)OC)c(=O)n1C.[Na+]` [Propoxycarbazone, Propoxycarbazone-sodium], for which the “Downy Brome % Control 21 DAT” value in assay [1] (setting [3]) is 73%; in assay [1] (setting [4]), 52%. Also, the “Downy Brome % Control 68 DAT” value in assay [1] (setting [3]) is reported as 90%; in assay [1] (setting [4]), 67%.

As for `CCS(=O)(=O)c1nc2ccccn2c1S(=O)(=O)NC(=O)Nc1nc(OC)cc(OC)n1` [Sulfosulfuron], the entries for the “Downy Brome % Control 21 DAT” value in assay [1] (setting [3]) and in assay [1] (setting [4]) were 78% and 52%, respectively. Also, the results for the “Downy Brome % Control 68 DAT” value in assay [1] (setting [3]) and in assay [1] (setting [4]) were 97% and 62%, respectively. Moreover, the “Wild Oat % Control 14 DAT” value came to 75% in the assay with Wild Oat (Avena fatua) (setting [5]) and 48% in the assay with Wild Oat (Avena fatua) (setting [6]). For the same compound, the “Wild Oat % Control 28 DAT” value with Wild Oat (Avena fatua) (setting [5]) came out at 98%; in the assay with Wild Oat (Avena fatua) (setting [6]), 62%. The entries for the “Downy Brome % Control 17 DAT” value in assay [2] (setting [7]), in assay [2] (setting [8]) and in assay [2] (setting [4]) were 30%, 30% and 5%, respectively. Besides, the “Downy Brome % Control 87 DAT” value came out at 92% in assay [2] (setting [7]), 90% in assay [2] (setting [8]) and 77% in assay [2] (setting [4]).

For the origin of these results see patent publication US20090325805A1, “Cationic surfactant based adjuvant systems for some herbicides that increase pH, herbicide solubility and performance” (priority 2004, published 2009).
